In PubChem BioAssay AID256 (DTP/NCI, 2004):
“And” between values parts separate entries of the source, which are not always exact repeats. Equal entries are not always repeated. Inconclusive results and toxic doses are left out.

Tested on: CD2F1 mice, L1210 leukemia ip, survival T/C
Experiment: NCI In Vivo Anticancer Drug Screen. Data for tumor model L1210 Leukemia (intraperitoneal) in CD2F1 (CDF1) mice
Details: endpoint: mean survival time, higher = longer survival
Procedure, shortened: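 Vehicle-treated tumor-bearing mice served as controls (C) for compound-treated mice (T). Reported figure is T divided by C.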

[1] = dose: 50.0 mg/kg/injection, schedule: Q04DX003 (ip), vehicle: water
[2] = dose: 100.0 mg/kg/injection, schedule: Q04DX003 (ip), vehicle: water
[3] = dose: 100.0 mg/kg/injection, schedule: Q01DX009 (ip), vehicle: saline with Tween-80
[4] = dose: 200.0 mg/kg/injection, schedule: Q01DX009 (ip), vehicle: saline with Tween-80
[5] = dose: 400.0 mg/kg/injection, schedule: Q01DX009 (ip), vehicle: saline with Tween-80
[6] = dose: 50.0 mg/kg/injection, schedule: Q01DX009 (ip), vehicle: saline with Tween-80
[7] = dose: 100.0 mg/kg/injection, schedule: Q04DX003 (ip), vehicle: saline with Tween-80
[8] = dose: 200.0 mg/kg/injection, schedule: Q04DX003 (ip), vehicle: saline with Tween-80
[9] = dose: 400.0 mg/kg/injection, schedule: Q04DX003 (ip), vehicle: saline with Tween-80
[10] = dose: 100.0 mg/kg/injection, schedule: Q01DX001 (ip), vehicle: saline
[11] = dose: 200.0 mg/kg/injection, schedule: Q01DX001 (ip), vehicle: saline
[12] = dose: 400.0 mg/kg/injection, schedule: Q01DX001 (ip), vehicle: saline
[13] = dose: 100.0 mg/kg/injection, schedule: Q04DX002 (ip), vehicle: saline with Tween-80

With `O=C(O)C(=O)O.[Ru].c1cnc2c(c1)ccc1cccnc12.c1cnc2c(c1)ccc1cccnc12` the T/C (dose: 3.13 mg/kg/injection, schedule: Q04DX003 (ip), vehicle: water) was 95 % of control, the T/C (dose: 6.25 mg/kg/injection, schedule: Q04DX003 (ip), vehicle: water) was 96 % of control and the T/C (dose: 12.5 mg/kg/injection, schedule: Q04DX003 (ip), vehicle: water) was 93 % of control. For the same molecule, the T/C (dose: 25.0 mg/kg/injection, schedule: Q04DX003 (ip), vehicle: water) was 93 % of control, the T/C [1] was 95 % of control and the T/C [2] was 91 % of control. For the same molecule, the T/C (dose: 200.0 mg/kg/injection, schedule: Q04DX003 (ip), vehicle: water) was 90 % of control.

With `CC(=O)OC1CCC2(C)C(CCC3C2CCC2(C)C3CC3OC(CCC(C)CO)C(C)C32)C1` (configuration not stated) the T/C [3] was 95 % of control, the T/C [4] was 91 % of control and the T/C [5] was 96 % of control.

For `CC(C)c1cccc(O)c(=O)c1`, the T/C [6] was 102 % of control and the T/C [3] was 100 % of control.

With `CC1CCC(=O)O1` (configuration not stated) the T/C (dose: 100.0 mg/kg/injection, schedule: Q04DX002 (ip), vehicle: saline) was 98 % of control, the T/C (dose: 200.0 mg/kg/injection, schedule: Q04DX002 (ip), vehicle: saline) was 98 % of control and the T/C (dose: 400.0 mg/kg/injection, schedule: Q04DX002 (ip), vehicle: saline) was 98 % of control.

`CO/N=C(/c1ccccc1)c1cc[n+](C)cc1` was tested, and the T/C (dose: 37.5 mg/kg/injection, schedule: Q04DX003 (ip), vehicle: saline) was 100 % of control, the T/C (dose: 75.0 mg/kg/injection, schedule: Q01DX001 (ip), vehicle: saline) was 95 % of control and the T/C (dose: 75.0 mg/kg/injection, schedule: Q04DX003 (ip), vehicle: saline) was 96 % of control. For the same molecule, the T/C (dose: 150.0 mg/kg/injection, schedule: Q01DX001 (ip), vehicle: saline) was 100 % of control.

With `CCCNC(=O)Oc1ccc(C(=O)OCC)cc1` the T/C (dose: 100.0 mg/kg/injection, schedule: Q04DX003 (ip), vehicle: saline) was 97 % of control, the T/C (dose: 200.0 mg/kg/injection, schedule: Q04DX003 (ip), vehicle: saline) was 101 % of control and the T/C (dose: 400.0 mg/kg/injection, schedule: Q04DX003 (ip), vehicle: saline) was 106 % of control.

`CN1CCc2c3n(c4ccccc24)C(=O)CCC31` (configuration not stated) was tested, and the T/C (dose: 6.25 mg/kg/injection, schedule: Q04DX003 (ip), vehicle: saline sonified) was 101 % of control, the T/C (dose: 12.5 mg/kg/injection, schedule: Q04DX003 (ip), vehicle: saline sonified) was 90 % of control and the T/C (dose: 25.0 mg/kg/injection, schedule: Q04DX003 (ip), vehicle: saline sonified) was 97 % of control.

For `CCN1CC1` (tested in a mixture with another compound), the T/C (dose: 1.17 mg/kg/injection, schedule: Q01DX009 (ip), vehicle: Klucel (hydroxypropylcellulose) (HPC)) was 93 % of control, the T/C (dose: 1.56 mg/kg/injection, schedule: Q04DX003 (ip), vehicle: other) was 92 % of control and the T/C (dose: 2.34 mg/kg/injection, schedule: Q01DX009 (ip), vehicle: Klucel (hydroxypropylcellulose) (HPC)) was 102 % of control. For the same molecule, the T/C (dose: 3.12 mg/kg/injection, schedule: Q04DX003 (ip), vehicle: other) was 101 % of control, the T/C (dose: 4.68 mg/kg/injection, schedule: Q01DX009 (ip), vehicle: Klucel (hydroxypropylcellulose) (HPC)) was 86 % of control and the T/C (dose: 6.25 mg/kg/injection, schedule: Q04DX003 (ip), vehicle: other) was 91 % of control. The T/C (dose: 9.37 mg/kg/injection, schedule: Q04DX003 (ip), vehicle: Klucel (hydroxypropylcellulose) (HPC)) was 96 % of control and 98 % of control, the T/C (dose: 14.2 mg/kg/injection, schedule: Q04DX003 (ip), vehicle: Klucel (hydroxypropylcellulose) (HPC)) was 86 % of control and 94 % of control and the T/C (dose: 21.3 mg/kg/injection, schedule: Q04DX003 (ip), vehicle: Klucel (hydroxypropylcellulose) (HPC)) was 103 % of control.

For `Nc1nnc(Cl)s1`, the T/C (dose: 100.0 mg/kg/injection, schedule: Q01DX001 (ip), vehicle: saline with Tween-80) was 108 % of control, the T/C (dose: 200.0 mg/kg/injection, schedule: Q01DX001 (ip), vehicle: saline with Tween-80) was 104 % of control and the T/C (dose: 400.0 mg/kg/injection, schedule: Q01DX001 (ip), vehicle: saline with Tween-80) was 97 % of control.

`O=C(Nc1ccc(C2=NCCN2)cc1)c1ccc(C(=O)Nc2ccc(C3=NCCN3)cc2)cc1` was tested, and the T/C (dose: 1.25 mg/kg/injection, schedule: Q01DX008 (iv), vehicle: other) was 103 % of control, the T/C (dose: 2.5 mg/kg/injection, schedule: Q01DX008 (iv), vehicle: other) was 103 % of control and the T/C (dose: 5.0 mg/kg/injection, schedule: Q01DX008 (iv), vehicle: other) was 108 % of control. For the same molecule, the T/C [1] was 112 % of control, the T/C (dose: 100.0 mg/kg/injection, schedule: Q01DX007 (ip), vehicle: water) was 153 % of control and the T/C [2] was 118 % of control. The T/C (dose: 200.0 mg/kg/injection, schedule: Q01DX007 (ip), vehicle: water) was 170 % of control and the T/C (dose: 200.0 mg/kg/injection, schedule: Q01DX009 (ip), vehicle: water) was 186 % of control.

With `COC(=O)C(C(=O)OC)C(Br)(C(=O)OC)C(=O)OC` the T/C [3] was 98 % of control, the T/C [7] was 91 % of control and the T/C [4] was 103 % of control. For the same molecule, the T/C [8] was 91 % of control and the T/C [9] was 95 % of control.

For `Brc1cnc2n[nH]nc2c1`, the T/C [10] was 109 % of control, the T/C [11] was 97 % of control and the T/C [12] was 97 % of control.

In the case of `CCOC(=O)C1C(=O)N(C)C(=O)N1Cc1ccccc1` (configuration not stated), the T/C (dose: 12.5 mg/kg/injection, schedule: Q01DX009 (ip), vehicle: other) is reported as 93 % of control, the T/C (dose: 25.0 mg/kg/injection, schedule: Q01DX009 (ip), vehicle: other) is reported as 89 % of control and the T/C (dose: 50.0 mg/kg/injection, schedule: Q01DX009 (ip), vehicle: other) is reported as 101 % of control. The T/C (dose: 100.0 mg/kg/injection, schedule: Q01DX009 (ip), vehicle: other) was 101 % of control and the T/C (dose: 200.0 mg/kg/injection, schedule: Q01DX009 (ip), vehicle: other) was 101 % of control.

For `CNC(=O)Sc1nnnc2ccccc12`, the T/C [7] was 101 % of control, the T/C [8] was 93 % of control and the T/C [9] was 98 % of control.

For `Cc1ccc(S(=O)(=O)OCCCCCCCCCCOS(=O)(=O)c2ccc(C)cc2)cc1`, the T/C [3] was 91 % of control, the T/C [7] was 91 % of control and the T/C [4] was 92 % of control. The T/C [8] was 97 % of control, the T/C [5] was 91 % of control and the T/C [9] was 94 % of control.

With `CCC1Cc2c([nH]c(=O)n(C)c2=O)O1` (configuration not stated) the T/C [10] was 97 % of control, the T/C [11] was 97 % of control and the T/C [12] was 97 % of control.

In the case of `NC(=O)c1ccc(OC(F)(F)C(F)Cl)cc1OC(F)(F)C(F)Cl` (configuration not stated), the T/C (dose: 25.0 mg/kg/injection, schedule: Q04DX002 (ip), vehicle: saline with Tween-80) is reported as 96 % of control, the T/C (dose: 50.0 mg/kg/injection, schedule: Q04DX002 (ip), vehicle: saline with Tween-80) is reported as 101 % of control and the T/C [13] is reported as 101 % of control.

`NC(=O)NC1CCCCCC1` was tested, and the T/C [3] was 102 % of control, the T/C [4] was 109 % of control and the T/C [5] was 100 % of control.

In the case of `Cc1cc(C(O)CNCCCn2c(N3CCOCC3)nc3c2c(=O)n(C)c(=O)n3C)ccc1O` (configuration not stated), the T/C (dose: 12.5 mg/kg/injection, schedule: Q01DX005 (ip), vehicle: water) is reported as 96 % of control, the T/C (dose: 25.0 mg/kg/injection, schedule: Q01DX005 (ip), vehicle: water) is reported as 97 % of control and the T/C (dose: 50.0 mg/kg/injection, schedule: Q01DX005 (ip), vehicle: water) is reported as 97 % of control. For the same molecule, the T/C (dose: 100.0 mg/kg/injection, schedule: Q01DX005 (ip), vehicle: water) was 96 % of control and the T/C (dose: 200.0 mg/kg/injection, schedule: Q01DX005 (ip), vehicle: water) was 100 % of control.

In the case of `Cc1c(C)c(C)c(CN2CCC(C)CC2)c(C)c1C`, the T/C (dose: 25.0 mg/kg/injection, schedule: Q01DX009 (ip), vehicle: saline with Tween-80) is reported as 90 % of control, the T/C [6] is reported as 91 % of control and the T/C [13] is reported as 98 % of control. The T/C [4] was 90 % of control, the T/C (dose: 200.0 mg/kg/injection, schedule: Q04DX002 (ip), vehicle: saline with Tween-80) was 94 % of control and the T/C [5] was 86 % of control. For the same molecule, the T/C (dose: 400.0 mg/kg/injection, schedule: Q04DX002 (ip), vehicle: saline with Tween-80) was 94 % of control.

For `Cn1c(=O)[nH]c2c(nc(-c3ccc4c(c3)OCO4)n2C)c1=O`, the T/C (dose: 7.8 mg/kg/injection, schedule: Q01DX005 (ip), vehicle: other) was 100 % of control, the T/C (dose: 15.6 mg/kg/injection, schedule: Q01DX005 (ip), vehicle: other) was 95 % of control and the T/C (dose: 31.3 mg/kg/injection, schedule: Q01DX005 (ip), vehicle: other) was 100 % of control. The T/C (dose: 62.5 mg/kg/injection, schedule: Q01DX005 (ip), vehicle: other) was 103 % of control.
